The values that follow come from PubChem BioAssay (NCI).

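Interpolation was linear, between the two tested concentrations surrounding the appropriate level; five concentrations were tested over 48 hours in 96-well plates. TGI is the concentration that stops growth completely.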

What all share (experiment): NCI-60 cell line screen, 48 h
Experiment [1] concerns ACHN renal.
Experiment [2] concerns CAKI-1 renal.
Experiment [3] has as its system COLO 205 colon.
In experiment [4] the test system is HL-60(TB) leukemia.
The test system of experiment [5] is HOP-62 NSCLC.
Experiment [6] deals with HT29 colon.
Experiment [7] has as its system KM12 colon.
In experiment [8] the test system is MOLT-4 leukemia.
The test system of experiment [9] is NCI-H226 lung.
The subject of experiment [10] is RPMI-8226 leukemia.
In experiment [11] the test system is RXF 393 renal.
Experiment [12] concerns SF-539 CNS.
Experiment [13] relates to SNB-75 CNS.
Experiment [14] deals with SR leukemia.
The test system of experiment [15] is UACC-257 melanoma.
Experiment [16] has as its system DU-145 prostate.

For `CCCOP(=S)(N1CC1)N1CC1`, the TGI in experiment [1], in [2], in experiment [3], in experiment [4], in experiment [5] and in experiment [6] was over 100 µM throughout. Moreover, the TGI in experiment [7], in experiment [8], in [9], in experiment [10], in experiment [11] and in experiment [12] was over 100 µM throughout. Besides, the TGI was over 100 µM in [13], over 100 µM in [14] and 46.5 µM in experiment [15].

As for `CCCCCCC(=O)OC[n+]1cccc(-c2c(COC(=O)NC(C)C)c(COC(=O)NC(C)C)c3n2CCC3)c1`, the TGI is 89.1 µM in [1]; 47.8 µM in experiment [2]; over 100 µM in experiment [3]; 98.4 µM in experiment [16]; over 48.9 µM in experiment [4]; over 100 µM in [5]. The TGI in [6] is over 100 µM; in experiment [7] it was over 100 µM; in experiment [8], over 80.7 µM; in [9] it was over 100 µM; in experiment [10], over 100 µM; in experiment [11], 51.5 µM. Moreover, the results for the TGI in [12], in experiment [13] and in [15] were over 75 µM, over 100 µM and over 100 µM, respectively.

Take `c1ccc(CSC(SCc2ccccc2)c2ccc3c(c2)OCO3)cc1`: the TGI in [1], in [2], in experiment [3], in experiment [16], in experiment [4] and in [5] was over 10 µM each time. Besides, the TGI in experiment [6], in experiment [7], in experiment [8], in experiment [9], in experiment [10] and in experiment [11] was over 10 µM in each case. The TGI in experiment [12], in experiment [13] and in [15] was over 10 µM each time.

In the case of `Cc1[nH]c2ccccc2c1C1=CC(=O)N(c2ccccc2)C1=O`, the TGI is over 100 µM in experiment [1]; over 100 µM in experiment [2]; over 100 µM in [3]; 52.5 µM in [16]; 39 µM in experiment [4]; 25.5 µM in experiment [5]. Besides, the TGI is 21.8 µM in experiment [6]; over 100 µM in experiment [8]; 88.4 µM in experiment [9]; over 100 µM in experiment [10]; 26.6 µM in experiment [11]; 27.1 µM in experiment [12]. In [15], this compound had a TGI of 61.5 µM.

In the case of `c1cc(C[S+]2CCCC2)oc1C[S+]1CCCC1`, the TGI in [1], in experiment [2], in experiment [3], in experiment [16], in experiment [5] and in [6] was over 100 µM each time. Besides, the TGI in experiment [8], in experiment [11], in experiment [12], in experiment [13] and in experiment [15] was over 100 µM throughout.

On to `O=C(O)CCc1nc2cc3ccccc3cc2[nH]c1=O`, for which the TGI in experiment [1], in [2], in [3], in experiment [16], in [5] and in experiment [6] was over 100 µM in each case. For the same compound, the TGI in experiment [7], in experiment [8], in [9], in experiment [11], in experiment [12] and in [13] was over 100 µM in each case. Also, the TGI in [14] and in experiment [15] was over 100 µM each time.

Take `Cn1nc(C(=O)N2CC(CCl)c3c2cc([N+](=O)[O-])c2ccccc32)cc1NC(=O)Nc1cc(C(=O)N2CC(CCl)c3c2cc([N+](=O)[O-])c2ccccc32)nn1C` (centres undefined): the TGI in experiment [1], in experiment [2], in experiment [3], in experiment [16], in experiment [5] and in experiment [7] was over 100 µM each time. Also, the TGI in [8] is over 100 µM; in experiment [9] it was over 100 µM; in experiment [10], over 100 µM; in [12], 70.2 µM; in experiment [13], over 100 µM; in experiment [15], over 100 µM.

Consider `COc1cc2c(cc1OCCCCN1CCN(CCCCOc3cc4c(cc3OC)C(=O)N3CCC[C@H]3C=N4)CC1)N=C[C@@H]1CCCN1C2=O`, for which the TGI in experiment [1] was over 100 µM; in [2] it was 0.182 µM; in experiment [3], 0.0354 µM; in experiment [16] it was over 100 µM; in experiment [5] it was over 42 µM; in experiment [6], 0.656 µM. Moreover, the TGI in [7] is 0.204 µM; in experiment [9] it was 0.0891 µM; in experiment [10], under 0.0241 µM; in [11], 0.507 µM; in experiment [12], 0.0692 µM; in experiment [14], over 100 µM. The same compound had a TGI in experiment [15] of 0.676 µM.

On to `Cc1ccc(F)c2c(=O)cc(-c3ccccc3)[nH]c12`, for which the TGI in [1], in [2], in [3], in [4], in experiment [5] and in [6] was over 100 µM in each case. For the same compound, the TGI in experiment [7], in experiment [8], in [9], in experiment [10], in experiment [11] and in experiment [12] was over 100 µM each time. For the same compound, the TGI in experiment [13], in experiment [14] and in [15] was over 100 µM throughout.

Take `CCOC(=O)Oc1ccc2c(c1)c(=O)c1c(NCCCN(CC)CC)ccc3nnn2c31`: the TGI in [1] was 15.8 µM; in [2], 9.75 µM; in experiment [3], 25.1 µM; in experiment [16] it was 17.4 µM; in [5], 12.5 µM; in [6], 15.9 µM. For the same compound, the TGI in experiment [7] was 19.8 µM; in experiment [8] it was over 100 µM; in experiment [9] it was 19.8 µM; in experiment [10], 10.1 µM; in experiment [11], 19.8 µM; in experiment [12], 19 µM. For the same compound, the TGI was over 53 µM in experiment [14] and 29.8 µM in [15].

For the compound `CC/C=C/C(/C=C/C[C@]1(CC)C[C@H](CC)[C@H](CC(=O)O)OO1)CC` (some centres undefined), the TGI in experiment [1] turned out to be 3.61 µM; in [2], 4.82 µM; in [3], 3.86 µM; in experiment [16], 4.36 µM; in [4], 4.76 µM; in [5], 3.5 µM. In addition, the TGI in experiment [6] was found to be 3.98 µM; in experiment [7], 3.68 µM; in experiment [9], 57.9 µM; in experiment [10] it was 4.43 µM; in experiment [11], 6.3 µM; in experiment [12] it was 4.07 µM. The TGI came to 15.4 µM in experiment [13] and 28.9 µM in experiment [15].

Regarding `COC1C(OC(N)=O)C(O)C(Oc2ccc3c(O)c(NC(=O)c4ccc(O)c(CC=C(C)C)c4)c(=O)oc3c2C)OC1(C)C` (centres undefined), the TGI in [1], in [2], in [3], in experiment [16], in [5] and in [6] was over 100 µM throughout. Besides, the TGI in experiment [7], in [8], in experiment [10], in [11], in experiment [12] and in experiment [13] was over 100 µM throughout. Further, the TGI in experiment [14] and in [15] was over 100 µM each time.

Turning to `Nc1cc(N)c(N=Nc2cccc3c(S(=O)(=O)O)cccc23)cc1N=Nc1cc([N+](=O)[O-])ccc1O`, the TGI in [1] was 78.1 µM; in experiment [2], over 100 µM; in [3], over 100 µM; in [16], over 100 µM; in experiment [5] it was over 100 µM; in experiment [6], over 100 µM. Further, the TGI in experiment [7], in experiment [8], in experiment [10], in experiment [11], in experiment [12] and in [13] was over 100 µM in each case. In addition, the values for the TGI in experiment [14] and in experiment [15] were 72.6 µM and 74.5 µM, respectively.

`CC1=C(C(=O)NC(C)(C)C)CC(C(=O)NC(C)(C)C)C(C)N1` (centres undefined): the TGI in experiment [1], in experiment [2], in experiment [3], in experiment [16], in experiment [4] and in experiment [5] was over 100 µM each time. The TGI in experiment [6], in [7], in experiment [8], in experiment [9], in experiment [10] and in experiment [11] was over 100 µM throughout. For the same compound, the TGI in experiment [12], in [13] and in experiment [15] was over 100 µM in each case.

`CSc1nc(-c2ccc(Cl)cc2)c(C#N)c(=O)[nH]1`: the TGI in experiment [1], in experiment [2], in experiment [3], in experiment [16], in experiment [4] and in experiment [5] was over 100 µM each time. Also, the TGI in experiment [6], in [7], in experiment [8], in experiment [9], in experiment [10] and in [11] was over 100 µM each time. Also, the TGI in experiment [12], in experiment [13] and in experiment [15] was over 100 µM in each case.
